Assay results published in PubChem BioAssay (NCI).
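Compound exposure: 48 hours, 5 concentrations, 96-well plates. TGI: total growth inhibition.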

How the values were obtained:
Assay in all cases: NCI tumour cell line growth inhibition, 48 h
SF-268 CNS = test system: SF-268 CNS
OVCAR-8 ovarian = test system: OVCAR-8 ovarian
SR leukemia = test system: SR leukemia
MOLT-4 leukemia = test system: MOLT-4 leukemia
ACHN renal = test system: ACHN renal
NCI-H460 lung = test system: NCI-H460 lung
OVCAR-5 ovarian = test system: OVCAR-5 ovarian
NCI-H522 lung = test system: NCI-H522 lung
A498 renal = test system: A498 renal
HL-60(TB) leukemia = test system: HL-60(TB) leukemia
BT-549 breast = test system: BT-549 breast
A549 NSCLC = test system: A549 NSCLC
EKVX NSCLC = test system: EKVX NSCLC
SF-295 CNS = test system: SF-295 CNS
HCC-2998 colon = test system: HCC-2998 colon
CCRF-CEM leukemia = test system: CCRF-CEM leukemia
786-0 renal = test system: 786-0 renal
MDA-MB-231 breast = test system: MDA-MB-231 breast
HOP-92 NSCLC = test system: HOP-92 NSCLC
T-47D breast = test system: T-47D breast

| Structure (SMILES) | TGI (SF-268 CNS) | TGI (OVCAR-8 ovarian) | TGI (SR leukemia) | TGI (MOLT-4 leukemia) | TGI (ACHN renal) | TGI (NCI-H460 lung) | TGI (OVCAR-5 ovarian) | TGI (NCI-H522 lung) | TGI (A498 renal) | TGI (HL-60(TB) leukemia) | TGI (BT-549 breast) | TGI (A549 NSCLC) | TGI (EKVX NSCLC) | TGI (SF-295 CNS) | TGI (HCC-2998 colon) | TGI (CCRF-CEM leukemia) | TGI (786-0 renal) | TGI (MDA-MB-231 breast) | TGI (HOP-92 NSCLC) | TGI (T-47D breast) |
| --- | --- | --- | --- | --- | --- | --- | --- | --- | --- | --- | --- | --- | --- | --- | --- | --- | --- | --- | --- | --- |
| COC(=O)CCSC1=CC(=O)c2nc3ccccc3c3ccnc1c23 | 34.3 µM | > 56.3 µM | > 51.5 µM | 50.4 µM | 48.3 µM | 41.3 µM | > 71.4 µM | 3.74 µM | > 100 µM | > 24 µM | 33 µM | > 100 µM | 40.7 µM | > 100 µM | 27.6 µM | > 26.6 µM | 40.2 µM | > 70.7 µM | > 55.4 µM | 44.1 µM |
| COc1cc2c(cc1OC)CN1CCc3ccccc3CC1C2 (stereo not drawn) | – | > 100 µM | 23.5 µM | > 100 µM | > 100 µM | > 100 µM | > 100 µM | – | > 100 µM | > 100 µM | > 100 µM | > 100 µM | > 100 µM | > 100 µM | > 100 µM | > 100 µM | > 100 µM | > 100 µM | > 100 µM | 75.6 µM |
| CCN(CC)c1nc(=O)c(C(=O)C(C)(C)C)c(C(C)(C)C)o1 | > 100 µM | > 100 µM | > 100 µM | > 100 µM | > 100 µM | > 100 µM | > 100 µM | > 100 µM | > 100 µM | > 100 µM | > 100 µM | > 100 µM | > 100 µM | > 100 µM | > 100 µM | > 100 µM | > 100 µM | > 100 µM | > 100 µM | > 100 µM |
| CCOC(=O)c1nc2cc(C(F)(F)F)ccc2nc1Oc1ccc(C(=O)OC)cc1 | > 100 µM | > 100 µM | > 100 µM | > 100 µM | > 100 µM | > 100 µM | > 100 µM | > 100 µM | > 100 µM | > 100 µM | > 100 µM | > 100 µM | > 100 µM | > 100 µM | > 100 µM | > 100 µM | > 100 µM | > 100 µM | > 100 µM | > 100 µM |
| O=c1c2ccccc2n2n1Cc1ccccc1C2 | > 100 µM | > 100 µM | > 100 µM | > 100 µM | > 100 µM | > 100 µM | – | > 100 µM | > 100 µM | > 100 µM | > 100 µM | > 100 µM | > 100 µM | > 100 µM | > 100 µM | > 100 µM | > 100 µM | > 100 µM | > 100 µM | > 100 µM |
| CN1CC(S(=O)(=O)c2ccccc2)CC(S(=O)(=O)c2ccccc2)C1c1ccccc1 (stereo not drawn) | 37.7 µM | > 100 µM | 78.3 µM | > 100 µM | 26.9 µM | 49.4 µM | 32.7 µM | 13.1 µM | 31.7 µM | 32.2 µM | 28.5 µM | > 100 µM | 32.6 µM | > 100 µM | 30.3 µM | – | 25.5 µM | 31.8 µM | 37.7 µM | 50.6 µM |
| O=C(Nn1c(-c2ccccc2)nc2ccccc2c1=O)c1ccc(O)cc1 | > 100 µM | > 100 µM | > 100 µM | > 100 µM | > 100 µM | > 100 µM | > 100 µM | > 100 µM | > 100 µM | > 100 µM | > 100 µM | > 100 µM | > 100 µM | > 100 µM | > 100 µM | > 100 µM | > 100 µM | > 100 µM | > 100 µM | > 100 µM |
| CCN(CC)C(=O)N[C@@H](Cc1ccccc1)C(=O)NC | > 100 µM | > 100 µM | > 100 µM | > 100 µM | > 100 µM | > 100 µM | > 100 µM | > 100 µM | > 100 µM | > 100 µM | > 100 µM | > 100 µM | > 100 µM | > 100 µM | > 100 µM | > 100 µM | > 100 µM | > 100 µM | – | > 100 µM |
| O=C1C=C(NCCc2cc(Cl)c(O)c(Cl)c2)C(=O)c2[nH]cnc21 | – | > 100 µM | > 100 µM | 67.5 µM | > 100 µM | 68.3 µM | > 100 µM | 31.4 µM | > 100 µM | 32.9 µM | > 100 µM | > 100 µM | > 100 µM | 45.6 µM | > 100 µM | – | > 100 µM | > 100 µM | – | 53.2 µM |
| Cc1ccc(-c2n[nH]c(=O)n2N2C(=O)C=CC2=O)cc1 | > 100 µM | > 100 µM | > 100 µM | > 100 µM | – | > 100 µM | > 100 µM | > 100 µM | > 100 µM | > 100 µM | > 100 µM | > 100 µM | > 100 µM | > 100 µM | > 100 µM | > 100 µM | > 100 µM | > 100 µM | – | > 100 µM |
| Nc1nc(NCC2(CO)CC(CCc3ccccc3)C2)cc(=O)[nH]1 (stereo not drawn) | > 100 µM | > 100 µM | > 100 µM | > 100 µM | – | > 100 µM | > 100 µM | > 100 µM | > 100 µM | > 100 µM | > 100 µM | > 100 µM | > 100 µM | > 100 µM | > 100 µM | > 100 µM | > 100 µM | > 100 µM | > 100 µM | > 100 µM |
| CC(C(=O)N1C(=O)N(C(=O)[C@H](C)C(O)c2ccccc2)[C@H](c2ccccc2)[C@H]1c1ccccc1)[C@@H](O)c1ccccc1 (stereo partly drawn) | > 100 µM | > 100 µM | > 100 µM | – | > 100 µM | 78.1 µM | 78.3 µM | > 100 µM | > 100 µM | > 100 µM | 71 µM | > 100 µM | 93.4 µM | > 100 µM | > 100 µM | – | 82.8 µM | 48.9 µM | 83.3 µM | > 100 µM |
| O=[N+]([O-])c1cc(C(F)(F)F)ccc1S(=O)(=O)N[C@@H]1CCCC[C@H]1NS(=O)(=O)c1ccc(C(F)(F)F)cc1[N+](=O)[O-] | 7.24 µM | 20.2 µM | > 26.2 µM | – | 11.2 µM | > 100 µM | > 100 µM | 4.76 µM | > 23.7 µM | 3.74 µM | 8.16 µM | > 31.3 µM | 93.3 µM | 9.38 µM | > 39.9 µM | 7.87 µM | > 42.2 µM | 8.02 µM | 8.31 µM | > 50.7 µM |
| O=C1Cc2c(-c3ccccc3)cc(-c3ccc4ccccc4c3)nc2-c2ccccc2N1 | 29.9 µM | 4.9 µM | > 100 µM | > 100 µM | > 100 µM | 87.6 µM | > 100 µM | 26.1 µM | 49.6 µM | – | > 100 µM | > 100 µM | 76.4 µM | > 100 µM | > 100 µM | > 100 µM | > 100 µM | 69.6 µM | > 100 µM | > 100 µM |
| COC(=O)C(CCSc1ccccc1)C(=O)OC | – | > 100 µM | > 100 µM | > 100 µM | > 100 µM | > 100 µM | > 100 µM | > 100 µM | > 100 µM | > 100 µM | > 100 µM | > 100 µM | > 100 µM | > 100 µM | > 100 µM | > 100 µM | > 100 µM | > 100 µM | > 100 µM | > 100 µM |
| O=C(Oc1ccc(OC(Oc2ccccc2)c2ccccc2)cc1)c1ccccc1 (stereo not drawn) | 23 µM | > 31.6 µM | > 31.6 µM | > 31.6 µM | > 31.6 µM | > 100 µM | > 100 µM | > 100 µM | 23.8 µM | > 31.6 µM | > 31.6 µM | > 31.6 µM | > 31.6 µM | 25.8 µM | 22 µM | > 31.6 µM | > 31.6 µM | > 31.6 µM | – | > 100 µM |
| CC(=O)OC(C#N)CC(C)(C)/[N+]([O-])=[N+](\[O-])C(C)(C)CC(C#N)OC(C)=O (stereo not drawn) | 42.2 µM | 73.3 µM | 48.3 µM | 26.3 µM | 24.5 µM | 35 µM | 95.4 µM | 23.9 µM | > 100 µM | – | 36.6 µM | > 100 µM | 39.7 µM | 80.8 µM | 31.6 µM | > 100 µM | 24.7 µM | 36.1 µM | 27 µM | 50.2 µM |
| N#Cc1c(-c2ccccc2)c(C#N)c(=S)n(C2OCC(O)C(O)C2O)c1N (stereo not drawn) | > 100 µM | > 100 µM | > 100 µM | > 100 µM | > 100 µM | > 100 µM | > 100 µM | > 100 µM | > 100 µM | > 100 µM | > 100 µM | > 100 µM | – | > 100 µM | > 100 µM | > 100 µM | > 100 µM | > 100 µM | – | > 100 µM |
| C=CCOCn1ccc(NC(=O)c2ccccc2)nc1=O | > 100 µM | > 100 µM | > 100 µM | > 100 µM | > 100 µM | > 100 µM | – | > 100 µM | > 100 µM | > 100 µM | > 100 µM | > 100 µM | > 100 µM | > 100 µM | > 100 µM | > 100 µM | > 100 µM | > 100 µM | – | > 100 µM |
